Data published in ChEMBL document CHEMBL4627246, “Pyroglutamide-Based P2X7 Receptor Antagonists Targeting Inflammatory Bowel Disease” (J Med Chem, 2020).

Columns and labels:
Type in all cases: cell-based
HOP-62 = assay: Cytotoxicity against human HOP62 cells assessed as effect on cell growth at 10 uM incubated for 48 hrs by sulforhodamine B assay; details: hop-62, 48 h
TK-10 = assay: Cytotoxicity against human TK10 cells assessed as effect on cell growth at 10 uM incubated for 48 hrs by sulforhodamine B assay; details: tk-10, 48 h
CAKI-1 = assay: Growth inhibition of human Caki1 cells assessed as growth percentage at 10 uM incubated for 48 hrs by sulforhodamine B assay; details: caki-1, 48 h
SK-MEL-5 = assay: Cytotoxicity against human SK-MEL-5 cells assessed as effect on cell growth at 10 uM incubated for 48 hrs by sulforhodamine B assay; details: sk-mel-5, 48 h
UACC-62 = assay: Cytotoxicity against human UACC62 cells assessed as effect on cell growth at 10 uM incubated for 48 hrs by sulforhodamine B assay; details: uacc-62, 48 h
Hs-578T = assay: Cytotoxicity against human Hs 578T cells assessed as effect on cell growth at 10 uM incubated for 48 hrs by sulforhodamine B assay
MCF7 = assay: Cytotoxicity against human MCF7 cells assessed as effect on cell growth at 10 uM incubated for 48 hrs by sulforhodamine B assay; details: mcf7, 48 h
MOLT-4 = assay: Cytotoxicity against human MOLT4 cells assessed as effect on cell growth at 10 uM incubated for 48 hrs by sulforhodamine B assay; details: molt-4, 48 h
SK-OV-3 = assay: Cytotoxicity against human SKOV3 cells assessed as effect on cell growth at 10 uM incubated for 48 hrs by sulforhodamine B assay; details: sk-ov-3, 48 h
EKVX = assay: Cytotoxicity against human EKVX cells assessed as effect on cell growth at 10 uM incubated for 48 hrs by sulforhodamine B assay
NCI-H522 = assay: Cytotoxicity against human NCI-H522 cells assessed as effect on cell growth at 10 uM incubated for 48 hrs by sulforhodamine B assay; details: nci-h522, 48 h
M14 = assay: Cytotoxicity against human M14 cells assessed as effect on cell growth at 10 uM incubated for 48 hrs by sulforhodamine B assay; details: m14, 48 h
SNB-19 = assay: Cytotoxicity against human SNB19 cells assessed as effect on cell growth at 10 uM incubated for 48 hrs by sulforhodamine B assay; details: snb-19, 48 h
SK-MEL-2 = assay: Cytotoxicity against human SK-MEL-2 cells assessed as effect on cell growth at 10 uM incubated for 48 hrs by sulforhodamine B assay; details: sk-mel-2, 48 h
UO-31 = assay: Cytotoxicity against human UO31 cells assessed as effect on cell growth at 10 uM incubated for 48 hrs by sulforhodamine B assay; details: uo-31, 48 h
K562 = assay: Cytotoxicity against human K562 cells assessed as effect on cell growth at 10 uM incubated for 48 hrs by sulforhodamine B assay; details: k562, 48 h
HCT-15 = assay: Cytotoxicity against human HCT15 cells assessed as effect on cell growth at 10 uM incubated for 48 hrs by sulforhodamine B assay; details: hct-15, 48 h
MDA-MB-435 = assay: Cytotoxicity against human MDA-MB-435 cells assessed as effect on cell growth at 10 uM incubated for 48 hrs by sulforhodamine B assay; details: mda-mb-435, 48 h
DU-145 = assay: Cytotoxicity against human DU145 cells assessed as effect on cell growth at 10 uM incubated for 48 hrs by sulforhodamine B assay; details: du-145, 48 h
RXF 393 = assay: Cytotoxicity against human RXF393 cells assessed as effect on cell growth at 10 uM incubated for 48 hrs by sulforhodamine B assay; details: rxf 393, 48 h

Measured: Activity

COc1ccc(CN2C(=O)CC[C@H]2C(=O)NCCc2ccccc2)cc1
Non-Toxic: all assays above

Cc1ccc(NC(=O)[C@@H]2CCC(=O)N2c2ccccc2)cc1
Non-Toxic: all assays above

CN(C)/C=C1\C[C@@H](C(=O)NCc2ccc(Cl)cc2Cl)N(c2cccs2)C1=O
Non-Toxic: all assays above

O=C1N[C@H](C(=O)NCc2ccc(Cl)cc2Cl)C/C1=C/NCc1ccc(Cl)cc1Cl
Non-Toxic: all assays above

O=C(NCc1ccc(Cl)cc1Cl)[C@@H]1CCC(=O)N1C(c1ccccc1)c1ccccc1
Non-Toxic: all assays above

CN1C(=O)CC[C@H]1C(=O)NCc1cc(C(F)(F)F)ccc1Cl
Non-Toxic: all assays above

CN(C)/C=C1\C[C@H]2C(=O)N(Cc3ccccc3Cl)C(N(C)C)N2C1=O (stereo not given in full)
Non-Toxic: all assays above

COc1ccc(CNC(=O)[C@@H]2CCC(=O)N2Cc2ccc(Cl)cc2Cl)c(OC)c1
Non-Toxic: all assays above

O=C(NCc1ccccc1Cl)[C@@H]1CCC(=O)N1Cc1ccccc1Cl
Non-Toxic: all assays above
